Assay results as given in patent publication US12686686B2 (priority 2020, dated 2026).
Entries after “also recorded” stand apart in the source; their conditions may differ. Like-named read-outs stand apart in the source and are kept apart here.

Legend:
LNcap = experiment: Cytotoxic activity test (MTT) on LNcap prostate cancer cells; format: cell-based, human; conditions: read-out: Prostate cancer cells IC50 LNcap
Description: (§1) All prostate cancer cells were cultured with a RPMI-1640 medium containing 10% calf serum, 100 units of penicillin per milliliter and 100 µg/mL of streptomycin in a constant temperature incubator containing 5% carbon dioxide at a saturated humidity of 37° C.
(§2) Cells in the logarithmic phase of growth were taken and cultured in 96-well plates for 24 hours (5×10^3 cells/well), then treated with different concentrations of the compounds to be tested, and incubated by MTT method for 4 hours. The supernatant was removed by centrifugation, the MTT crystals were dissolved by adding DMSO, and the absorbance value was measured by an enzyme-linked immunosorbent assay at a wavelength of 570 nm. The cytotoxic activity of the compounds to be tested on cancer cells was expressed as IC50.

prostate cancer cells = experiment: Inhibitory activity on a variety of prostate cancer cells (Table 1); format: cell-based, human; conditions: structure-activity statements on Table 1
Description: as §1, §2

22RV1 = experiment: Cytotoxic activity test (MTT) on 22RV1 prostate cancer cells; format: cell-based, human
Description: as §1, §2

C4-2B/ENZR = experiment: Cytotoxic activity test (MTT) on C4-2B/ENZR prostate cancer cells; format: cell-based, human; conditions: C4-2B/ENZR cells
Description: as §1, §2

C4-2B = experiment: Cytotoxic activity test (MTT) on C4-2B prostate cancer cells; format: cell-based, human; conditions: C4-2B cells
Description: as §1, §2

Vcap-CRPC = experiment: Cytotoxic activity test (MTT) on Vcap-CRPC prostate cancer cells; format: cell-based, human; conditions: read-out: Prostate cancer cells IC50 Vcap-CRPC
Description: as §1, §2

RWPE-1 = experiment: Cytotoxic activity test (MTT) on normal human prostate cell RWPE-1; format: cell-based
Description: as §1, §2

[1] = test system: 22Rv1 human prostate cancer cells; experiment: Mice model for 22RV1 prostate cancer growth, intraperitoneal injection in combination with enzalutamide; format: in vivo, nod-scid male mice
Text: (§3) First, a large number of 22RV1 cells were amplified. To ensure the success rate of tumor-bearing, the cell state needs to be adjusted to the optimal state. When the number of the cells was sufficient, the cells were digested and flushed twice with PBS buffer to remove fetal bovine serum (FBS) from the medium to reduce immune rejection. The cells were adjusted to 3000*10^4/mL after counting by a hemocytometer. Then 22Rv1 human prostate cancer cells […] were subcutaneously injected into a 4-5 weeks old nod-scid male mice with severe immunodeficiency.
When the tumor grew to about 100 mm^3, the mice were randomly divided into 4 groups to make sure that the average tumor volume was the same. […] The body weight of the mice and the length and width of the tumor were measured and recorded every 3 days. The subcutaneous tumors were taken and then photographed at the end of the experiment. The tumor volumes were calculated according to the equation: volume=length×width^2×π/6, and then counted. The experimental results are shown in FIG. 3A, FIG. 3B, FIG. 3C and FIG. 3D.

[2] = test system: 22Rv1 human prostate cancer cells; experiment: Mice model for 22RV1 prostate cancer growth, oral administration experiment; format: in vivo, nod-scid male mice; conditions: 22RV1 tumor-bearing mice
Text: as §3
When the tumor grew to a volume of about 100 mm^3, the mice were randomly divided into 3 groups to make sure that the average tumor volume was the same. The mice in the dosing group were orally gavaged with 0.5 mg/kg and 2 mg/kg of Compound YH-52 per day, and the mice in the control group were given the same volume of normal saline containing DMSO. The body weight of the mice and the length and width of the tumors were measured and recorded every 3 days. The subcutaneous tumors were taken and then photographed at the end of the experiment. The tumor volumes were calculated according to the equation: volume=length×width^2×π/6, and then counted. The experimental results are shown in FIG. 2A, FIG. 2B and FIG. 2C.

[3] = 22RV1 cells, MTT, read-out: Prostate cancer cells IC50 22RV1
[4] = normal human prostate cell RWPE-1, MTT, read-out: Normal cells RWPE-1 (IC50)

| Compound | IC50 (LNcap; LNcap cells, MTT) [nM] | inhibitory activity on prostate cancer cells (in words) (prostate cancer cells) | IC50 (22RV1; [3]) [nM] | IC50 (C4-2B/ENZR) [nM] | IC50 (C4-2B) [nM] | IC50 (Vcap-CRPC; Vcap-CRPC cells, MTT) [nM] | IC50 (RWPE-1; [4]) [nM] | further results |
| --- | --- | --- | --- | --- | --- | --- | --- | --- |
| C=C(C)[C@@]12OC3(c4ccccc4)O[C@@H]1[C@@H]1[C@@H]4O[C@]4(COC(=O)CCCCCCCCCCCCCCC)[C@@H](O)[C@]4(O)C(=O)C(C)=C[C@H]4[C@@]1(O3)[C@H](C)[C@H]2OC(C)=O [YH-5] | 99.3 | significant decrease in activity | 44500 | 434 | 904 | 4660 | 72800 | – |
| C=C(C)[C@@]12OC3(/C=C/C=C/CCCCC)O[C@@H]1[C@@H]1[C@@H]4O[C@]4(CO)[C@@H](O)[C@]4(O)C(=O)C(C)=C[C@H]4[C@@]1(O3)[C@H](C)[C@H]2OC(=O)c1ccccc1 [YH-16] | – | more cytotoxic | – | – | – | – | 9670 | IC50 (LNcap; Homo sapiens, LNCaP): 5.43 nM; IC50 (22RV1; Homo sapiens, 22Rv1, read-out: Prostate cancer cells IC50 22RV1): 33.2 nM; IC50 (Vcap-CRPC; Homo sapiens): 5.7 nM |
| C=C(C)[C@@]12OC3(/C=C/C=C/CCCCC)O[C@@H]1[C@@H]1[C@@H]4O[C@]4(COC(=O)c4ccccc4)[C@@H](O)[C@]4(O)C(=O)C(C)=C[C@H]4[C@@]1(O3)[C@H](C)[C@H]2OC(=O)c1ccccc1 [YH-20] | – | significant decrease in activity | – | 5760 | 1580 | – | – | – |
| C=C(C)[C@@]12OC3(/C=C/C=C/CCCCC)O[C@@H]1[C@@H]1[C@@H]4O[C@]4(COC(=O)c4ccccc4)[C@@H](O)[C@]4(O)C(=O)C(C)=C[C@H]4[C@@]1(O3)[C@H](C)[C@H]2OC(C)=O [YH-25] | – | significant decrease in activity | – | – | – | – | – | IC50 (C4-2B/ENZR; Homo sapiens): 2300 nM; IC50 (C4-2B; Homo sapiens): 593 nM |
| C=C(C)C12OC3(c4ccccc4)OC1C1C(O)C(O)(CO)C(O)C4(O)C(=O)C(C)=CC4C1(O3)C(C)C2OC(=O)c1ccccc1 (centres unmarked) [YH-51] | 2.51 | significantly reduced activity | 1770 | 77.4 | 7.81 | 2.02 | 12300 | – |
| C=C(C)[C@@]12OC3(c4ccccc4)O[C@@H]1[C@@H]1[C@H](O)[C@](Br)(CO)[C@@H](O)[C@]4(O)C(=O)C(C)=C[C@H]4[C@@]1(O3)[C@H](C)[C@H]2OC(=O)c1ccccc1 [YH-52] | – | most prominent; also recorded: enhanced activity | – | – | – | – | – | effect in combination with ENZ ([1]; intraperitoneal injection 0.1 mg/kg in combination with ENZ (10 mg/kg)): significant synergistic effect; efficacy compared to the positive drug enzalutamide (ENZ) ([1]; intraperitoneal injection 0.1 mg/kg per day, ENZ 10 mg/kg): greater efficacy; tumor growth in mice ([2]; oral gavage 0.5 mg/kg per day): significantly inhibit tumor growth; tumor growth in mice ([2]; oral gavage 2 mg/kg per day): significantly inhibit tumor growth; IC50 (RWPE-1; Homo sapiens, RWPE-1, read-out: Normal cells RWPE-1 (IC50)): 53600 nM; toxicity for the normal human prostate cell RWPE-1 (RWPE-1; compared with prototype compound YH-11): significantly reduced toxicity |
